{"source": "patent US8846601B2", "about": "“Melanocortin receptor-specific peptides” (Palatin Technologies, Inc., priority 2009, dated 2014)", "key": {"hMC4-R [1]": {"target": "T1, hMC4-R (Homo sapiens (Human), UniProt P32245)", "T1 sequence (P32245 whole entry)": "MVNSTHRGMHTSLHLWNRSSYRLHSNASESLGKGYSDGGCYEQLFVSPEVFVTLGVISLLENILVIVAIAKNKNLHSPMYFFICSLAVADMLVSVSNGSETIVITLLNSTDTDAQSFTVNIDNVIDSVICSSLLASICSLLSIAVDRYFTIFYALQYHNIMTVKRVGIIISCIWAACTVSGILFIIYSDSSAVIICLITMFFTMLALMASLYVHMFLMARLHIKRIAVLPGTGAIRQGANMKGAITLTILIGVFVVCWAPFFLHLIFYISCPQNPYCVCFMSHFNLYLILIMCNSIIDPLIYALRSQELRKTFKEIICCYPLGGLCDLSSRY", "test": "Assay for agonist activity: cAMP accumulation in HEK-293 cells that express hMC4-R", "conditions": "for functional status at MC4-R (agonist / partial agonist): agonist = intrinsic activity 70% or higher, partial agonist 10-70%", "procedure": "By “intrinsic activity” is meant the maximal functional activity achievable by a compound in a specified melanocortin receptor expressing cell system, such as the maximal stimulation of adenylyl cyclase.\nAccumulation of intracellular cAMP was examined as a measure of the ability of the peptides of the present invention to elicit a functional response in HEK-293 cells that express MC4-R. Confluent HEK-293 cells that express recombinant hMC4-R were detached from culture plates by incubation in enzyme-free cell dissociation buffer. Dispersed cells were suspended in Earle's Balanced Salt Solution containing 10 mM HEPES (pH 7.5), 1 mM MgCl2, 1 mM glutamine, 0.5% albumin and 0.3 mM 3-isobutyl-1-methyl-xanthine (IBMX), a phosphodiesterase inhibitor. […] Cells were exposed for 15 minutes at 37° C. to peptides of the present invention dissolved in DMSO (final DMSO concentration of 1%) at a concentration range of 0.05-5000 nM in a total assay volume of 200 μL. […] Data analysis was performed by nonlinear regression analysis with Graph-Pad Prism® software. The maximum efficacies of the test peptides of the present invention were compared to that achieved by the reference melanocortin agonist NDP-αMSH."}, "Male Sprague-Dawley rats [2]": {"tested_on": "Male Sprague-Dawley rats", "test": "Induction of penile erection in male rats", "type": "in vivo, rat", "conditions": "for induction of penile erection: male Sprague-Dawley rats, 60 minute observation, No. 154 as trifluoracetic acid salt, No. 155 as acetate salt", "text": "Each dose group contained six or seven animals, with video observation for sixty minutes following administration."}, "hMC3-R [3]": {"target": "T2, hMC3-R (Homo sapiens (Human), UniProt P41968)", "T2 sequence (P41968 whole entry)": "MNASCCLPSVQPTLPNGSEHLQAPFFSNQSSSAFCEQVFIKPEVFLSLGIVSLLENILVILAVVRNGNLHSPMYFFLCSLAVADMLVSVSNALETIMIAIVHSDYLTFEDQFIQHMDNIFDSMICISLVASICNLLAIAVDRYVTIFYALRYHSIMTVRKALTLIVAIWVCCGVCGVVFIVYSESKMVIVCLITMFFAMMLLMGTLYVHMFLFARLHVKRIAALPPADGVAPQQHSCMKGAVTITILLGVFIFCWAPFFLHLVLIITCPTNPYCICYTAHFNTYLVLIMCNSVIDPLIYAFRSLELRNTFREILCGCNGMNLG", "test": "Competitive binding using Eu-labeled NDP-α-MSH, MC3-R", "method": "(§1) A competitive inhibition binding assay is performed using membrane homogenates prepared from HEK-293 cells that express recombinant hMC4-R, hMC3-R, or hMC5-R, and from B-16 mouse melanoma cells (containing endogenous MC1-R). In some instances, HEK-293 cells that express recombinant hMC1-R were employed. In the examples that follow, all MC3-R, MC4-R and MC5-R values are for human recombinant receptors. MC1-R values are for B-16 mouse melanoma cells, unless the heading is “hMC1-R”, in which case the value is for human recombinant MC1-R. Assays were performed in 96 well GF/B Millipore multiscreen filtration plates (MAFB NOB10) pre-coated with 0.5% bovine serum albumin (Fraction V). […] Filters were dried and counted in a gamma counter for bound radioactivity. […] Maximal specific binding (100%) was defined as the difference in radioactivity (cpm) bound to cell membranes in the absence and presence of 1 μM NDP-α-MSH. […] Ki values for test peptides of the present invention were determined using Graph-Pad Prism® curve-fitting software.\nAlternatively, a competitive inhibition binding assay was performed employing Eu-NDP-α-MSH (PerkinElmer Life Sciences catalog No. AD0225) with determination by time-resolved fluorometry (TRF) of the lanthanide chelate. […] The plates were incubated on a shaker for 15 minutes and read at 340 nm excitation and 615 nm emission wavelengths. […]"}, "Male Sprague-Dawley rats [4]": {"tested_on": "Male Sprague-Dawley rats", "test": "Rat feeding studies: food intake and body weight change", "type": "in vivo", "conditions": "for decrease in food consumption compared to control: rats, 0-2, 0-4 and 0-20 hour periods", "method": "Change in food intake and body weight was evaluated for selected peptides administered by intravenous (IV) or subcutaneous injection routes. Male Sprague-Dawley rats were obtained from Hilltop Lab Animals, Inc. (Scottsdale, Pa.) or other vendors. Animals were individually housed in conventional polystyrene hanging cages and maintained on a controlled 12 hour on/off light cycle. Water and pelleted food was provided ad libitum. The rats were dosed IV with vehicle or selected peptides (0.3 to 1.0 mg/kg), or dosed subcutaneously with vehicle or selected peptides (doses up to 30 mg/kg). […] The changes in body weight and food intake for the 48 hour and 72 hour periods after dosing can also be measured to determine reversal of changes in body weight and food intake effects back to baseline levels."}, "[5]": {"target": "T3, MC1-R (B-16 mouse melanoma cells) (Mus musculus (Mouse), UniProt Q01727)", "T3 sequence (Q01727 whole entry)": "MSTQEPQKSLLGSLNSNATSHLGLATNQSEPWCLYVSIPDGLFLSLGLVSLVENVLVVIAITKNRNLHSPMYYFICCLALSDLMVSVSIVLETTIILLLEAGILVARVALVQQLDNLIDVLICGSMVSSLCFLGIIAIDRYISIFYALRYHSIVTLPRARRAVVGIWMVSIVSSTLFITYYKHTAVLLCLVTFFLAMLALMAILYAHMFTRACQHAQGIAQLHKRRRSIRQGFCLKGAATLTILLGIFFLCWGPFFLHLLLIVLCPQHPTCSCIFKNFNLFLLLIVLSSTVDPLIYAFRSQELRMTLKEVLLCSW", "test": "Competitive inhibition binding assay using [I125]-NDP-α-MSH, MC1-R", "method": "as §1"}, "[6]": {"target": "T3, MC1-R (B-16 mouse melanoma cells)", "test": "Competitive binding using Eu-labeled NDP-α-MSH, MC1-R", "method": "A competitive inhibition binding assay is performed using membrane homogenates prepared from HEK-293 cells that express recombinant hMC4-R, hMC3-R, or hMC5-R, and from B-16 mouse melanoma cells (containing endogenous MC1-R). In some instances, HEK-293 cells that express recombinant hMC1-R were employed. In the examples that follow, all MC3-R, MC4-R and MC5-R values are for human recombinant receptors. MC1-R values are for B-16 mouse melanoma cells, unless the heading is “hMC1-R”, in which case the value is for human recombinant MC1-R. Assays were performed in 96 well GF/B Millipore multiscreen filtration plates (MAFB NOB10) pre-coated with 0.5% bovine serum albumin (Fraction V). Membrane homogenates were incubated with 0.2 nM (for hMC4-R) 0.4 nM (for MC3-R and MC5-R) or 0.1 nM (for mouse B16 MC1-R or hMC1-R) [I^125]-NDP-α-MSH (Perkin Elmer) and increasing concentrations of test peptides of the present invention in buffer containing 25 mM HEPES buffer (pH 7.5) with 100 mM NaCl, 2 mM CaCl2, 2 mM MgCl2, 0.3 mM 1,10-phenanthroline, and 0.2% bovine serum albumin. After incubation for 60 minutes at 37° C., the assay mixture was filtered and the membranes washed three times with ice-cold buffer. Filters were dried and counted in a gamma counter for bound radioactivity. […] Maximal specific binding (100%) was defined as the difference in radioactivity (cpm) bound to cell membranes in the absence and presence of 1 μM NDP-α-MSH. […] Ki values for test peptides of the present invention were determined using Graph-Pad Prism® curve-fitting software.\nAlternatively, a competitive inhibition binding assay was performed employing Eu-NDP-α-MSH (PerkinElmer Life Sciences catalog No. AD0225) with determination by time-resolved fluorometry (TRF) of the lanthanide chelate. […] The plates were incubated on a shaker for 15 minutes and read at 340 nm excitation and 615 nm emission wavelengths. […] Ki values were determined by curve-fitting with Graph-Pad Prism® software using a one-site fixed-slope competition binding model."}, "hMC3-R [7]": {"target": "T2, hMC3-R", "test": "Competitive inhibition binding assay using [I125]-NDP-α-MSH, MC3-R", "method": "(§2) A competitive inhibition binding assay is performed using membrane homogenates prepared from HEK-293 cells that express recombinant hMC4-R, hMC3-R, or hMC5-R, and from B-16 mouse melanoma cells (containing endogenous MC1-R). In some instances, HEK-293 cells that express recombinant hMC1-R were employed. In the examples that follow, all MC3-R, MC4-R and MC5-R values are for human recombinant receptors. […] Membrane homogenates were incubated with 0.2 nM (for hMC4-R) 0.4 nM (for MC3-R and MC5-R) or 0.1 nM (for mouse B16 MC1-R or hMC1-R) [I^125]-NDP-α-MSH (Perkin Elmer) and increasing concentrations of test peptides of the present invention in buffer containing 25 mM HEPES buffer (pH 7.5) with 100 mM NaCl, 2 mM CaCl2, 2 mM MgCl2, 0.3 mM 1,10-phenanthroline, and 0.2% bovine serum albumin. After incubation for 60 minutes at 37° C., the assay mixture was filtered and the membranes washed three times with ice-cold buffer. Filters were dried and counted in a gamma counter for bound radioactivity. […] Maximal specific binding (100%) was defined as the difference in radioactivity (cpm) bound to cell membranes in the absence and presence of 1 μM NDP-α-MSH. […] Each assay was conducted in triplicate and the actual mean values are described, with results less than 0% reported as 0%. Ki values for test peptides of the present invention were determined using Graph-Pad Prism® curve-fitting software."}, "hMC1-R [8]": {"target": "T4, hMC1-R (Homo sapiens (Human), UniProt Q01726)", "T4 sequence (Q01726 whole entry)": "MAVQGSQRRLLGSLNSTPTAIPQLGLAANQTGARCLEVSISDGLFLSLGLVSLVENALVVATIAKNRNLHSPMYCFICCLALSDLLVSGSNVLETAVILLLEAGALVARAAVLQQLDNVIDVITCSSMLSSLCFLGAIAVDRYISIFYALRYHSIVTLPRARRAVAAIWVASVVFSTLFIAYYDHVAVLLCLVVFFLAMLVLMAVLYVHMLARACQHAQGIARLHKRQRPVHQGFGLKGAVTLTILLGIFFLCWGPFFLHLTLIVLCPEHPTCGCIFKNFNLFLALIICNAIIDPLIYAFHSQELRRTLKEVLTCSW", "test": "Functional assay (EC50 and intrinsic activity) at hMC1-R", "type": "cell-based"}, "[9]": {"test": "Pharmacokinetic studies, rat model, subcutaneous injection", "conditions": "in vivo, sc, formulation as in Section 9.7, read-out: circulation half life (converted)"}, "hMC1-R [10]": {"target": "T4, hMC1-R", "test": "Competitive inhibition binding assay, human recombinant MC1-R", "method": "as §2"}, "hMC4-R [11]": {"target": "T1, hMC4-R", "test": "Competitive inhibition binding assay using [I125]-NDP-α-MSH, hMC4-R membranes", "method_in_brief": "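Membranes from HEK-293 cells expressing recombinant hMC1-R or hMC4-R incubated with 0.1 nM (MC1-R) or 0.2 nM (MC4-R) [I125]-NDP-α-MSH and increasing peptide concentrations in HEPES pH 7.5, 60 min at 37 °C; filtered, gamma counted.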"}}, "note": "Like-named read-outs stand apart in the source and are kept apart here. Peptide text beside a SMILES is read from it."}
{"smiles": "CC(=O)N[C@@H](CCCNC(=N)N)C(=O)N[C@H]1CC(=O)NCCCC[C@@H](C(N)=O)NC(=O)[C@H](Cc2c[nH]c3ccccc23)NC(=O)[C@H](CCCNC(=N)N)NC(=O)[C@@H](Cc2ccccc2)NC(=O)[C@H](Cc2c[nH]cn2)NC1=O", "note": "[Peptide No. 1, Ac-Arg-cyclo(Asp-His- D-Phe-Arg-Trp-Lys)- NH2]", "values": [{"measurement": "functional status at MC4-R (agonist / partial agonist)", "setting": "hMC4-R [1]", "result": "agonist"}, {"measurement": "observed spontaneous erections compared to vehicle", "setting": "Male Sprague-Dawley rats [2]; rats, IV, doses of 0.3 or 1 mg/kg", "result": "statistically significant increase"}, {"measurement": "Ki", "setting": "hMC3-R [3]", "result": 103, "unit": "nM"}, {"measurement": "food intake and rate of change in body weight", "setting": "Male Sprague-Dawley rats [4]; rat feeding studies, bremelanotide as positive control", "result": "reduce food intake and decrease the rate of change in body weight"}, {"measurement": "decrease in food consumption compared to control", "setting": "Male Sprague-Dawley rats [4]; 0.3 mg/kg", "result": "statistically significant"}, {"measurement": "decrease in food consumption compared to control", "setting": "Male Sprague-Dawley rats [4]; 1 mg/kg", "result": "statistically significant"}, {"measurement": "Ki", "setting": "[5]", "result": 3, "unit": "nM"}, {"measurement": "Ki", "setting": "[6]", "result": 4, "unit": "nM"}]}
{"smiles": "CC(=O)N[C@@H](CCCNC(=N)N)C(=O)N[C@H]1CC(=O)NCCCC[C@@H](C(N)=O)NC(=O)[C@H](Cc2c[nH]c3ccccc23)NC(=O)[C@H](CCCNC(=N)N)NC(=O)[C@@H](Cc2ccccc2)NC(=O)[C@H](CCC(N)=O)NC1=O", "note": "[Peptide No. 32, Ac-Arg-cyclo(Asp-Gln- D-Phe-Arg-Trp-Lys)- NH2]", "values": [{"measurement": "Ki", "setting": "hMC3-R [7]", "result": 340, "unit": "nM"}, {"measurement": "functional status at MC4-R (agonist / partial agonist)", "setting": "hMC4-R [1]", "result": "agonist"}, {"measurement": "observed spontaneous erections", "setting": "Male Sprague-Dawley rats [2]; rats, subcutaneous, doses of 1, 3 or 10 mg/kg", "result": "increase in observed spontaneous erections"}, {"measurement": "Ki", "setting": "[5]", "result": 133, "unit": "nM"}, {"measurement": "Ki", "setting": "[6]", "result": 673, "unit": "nM"}]}
{"smiles": "CC(=O)N[C@@H](CCCNC(=N)N)C(=O)N[C@H]1CCCNC(=O)CC[C@@H](C(N)=O)NC(=O)[C@H](Cc2c[nH]c3ccccc23)NC(=O)[C@H](CCCNC(=N)N)NC(=O)[C@@H](Cc2ccccc2)NC(=O)[C@H](CC(N)=O)NC1=O", "note": "[compound 154, Ac-Arg-cyclo(Orn-Asn- D-Phe-Arg-Trp-Glu)- NH2]", "values": [{"measurement": "induction of penile erection", "setting": "Male Sprague-Dawley rats [2]; subcutaneous", "result": "robustly induce a penile erection"}, {"measurement": "EC50", "setting": "hMC1-R [8]", "result": 25, "unit": "nM"}, {"measurement": "half-life", "setting": "[9]", "result": "~42", "unit": "min"}, {"measurement": "Ki", "setting": "hMC1-R [10]", "result": 688, "unit": "nM"}]}
{"smiles": "CC(=O)N[C@@H](CCCNC(=N)N)C(=O)N[C@H]1CCCCNC(=O)C[C@@H](C(N)=O)NC(=O)[C@H](Cc2c[nH]c3ccccc23)NC(=O)[C@H](CCCNC(=N)N)NC(=O)[C@@H](Cc2ccccc2)NC(=O)[C@H](CC(N)=O)NC1=O", "note": "[compound 155, Ac-Arg-cyclo(Lys-Asn- D-Phe-Arg-Trp-Asp)- NH2] (HELM PEPTIDE1{[ac].R.K.N.[dF].R.W.D.[am]}$PEPTIDE1,PEPTIDE1,3:R3-8:R3$$$V2.0)", "values": [{"measurement": "EC50", "setting": "hMC4-R [1]", "result": 0.189, "unit": "nM"}, {"measurement": "induction of penile erection", "setting": "Male Sprague-Dawley rats [2]; subcutaneous", "result": "robustly induce a penile erection"}, {"measurement": "EC50", "setting": "hMC1-R [8]", "result": 14, "unit": "nM"}, {"measurement": "Ki", "setting": "hMC4-R [11]; averaged, [I125]-NDP-α-MSH (values not marked *), read-out: MC4-R Ki", "result": 5, "unit": "nM"}, {"measurement": "Ki", "setting": "hMC4-R [11]; read-out: hMC4-R (Ki)", "result": 5, "unit": "nM"}, {"measurement": "half-life", "setting": "[9]", "result": "~42", "unit": "min"}, {"measurement": "Ki", "setting": "hMC1-R [10]", "result": 240, "unit": "nM"}]}
